Data as given in ChEMBL document CHEMBL3808366, “Facile and efficient synthesis and biological evaluation of 4-anilinoquinazoline derivatives as EGFR inhibitors” (Bioorg Med Chem Lett, 2016).
pIC50: −log10 of the molar value. Activity calls are given as the source filed them. No cut-off for these calls is given here.

Assays:
[1] = system: NCI-H1975; assay: Antiproliferative activity against human NCI-H1975 cells over expressing EGFR after 48 hrs by MTT assay; format: functional, cell-based; conditions: NCI-H1975, 48 h
[2] = system: HepG2; assay: Antiproliferative activity against human HepG2 cells over expressing EGFR after 48 hrs by MTT assay; format: functional, cell-based; conditions: HepG2, 48 h
[3] = Antiproliferative activity against human SMMC7721 cells over expressing EGFR after 48 hrs by MTT assay; format: functional, cell-based; conditions: SMMC-7721, 48 h
[4] = molecular target: Epidermal growth factor receptor (Homo sapiens) (UniProt P00533); conditions: NCI-H1975, at 1 µM
Sequence of Epidermal growth factor receptor (Homo sapiens) (P00533 whole entry): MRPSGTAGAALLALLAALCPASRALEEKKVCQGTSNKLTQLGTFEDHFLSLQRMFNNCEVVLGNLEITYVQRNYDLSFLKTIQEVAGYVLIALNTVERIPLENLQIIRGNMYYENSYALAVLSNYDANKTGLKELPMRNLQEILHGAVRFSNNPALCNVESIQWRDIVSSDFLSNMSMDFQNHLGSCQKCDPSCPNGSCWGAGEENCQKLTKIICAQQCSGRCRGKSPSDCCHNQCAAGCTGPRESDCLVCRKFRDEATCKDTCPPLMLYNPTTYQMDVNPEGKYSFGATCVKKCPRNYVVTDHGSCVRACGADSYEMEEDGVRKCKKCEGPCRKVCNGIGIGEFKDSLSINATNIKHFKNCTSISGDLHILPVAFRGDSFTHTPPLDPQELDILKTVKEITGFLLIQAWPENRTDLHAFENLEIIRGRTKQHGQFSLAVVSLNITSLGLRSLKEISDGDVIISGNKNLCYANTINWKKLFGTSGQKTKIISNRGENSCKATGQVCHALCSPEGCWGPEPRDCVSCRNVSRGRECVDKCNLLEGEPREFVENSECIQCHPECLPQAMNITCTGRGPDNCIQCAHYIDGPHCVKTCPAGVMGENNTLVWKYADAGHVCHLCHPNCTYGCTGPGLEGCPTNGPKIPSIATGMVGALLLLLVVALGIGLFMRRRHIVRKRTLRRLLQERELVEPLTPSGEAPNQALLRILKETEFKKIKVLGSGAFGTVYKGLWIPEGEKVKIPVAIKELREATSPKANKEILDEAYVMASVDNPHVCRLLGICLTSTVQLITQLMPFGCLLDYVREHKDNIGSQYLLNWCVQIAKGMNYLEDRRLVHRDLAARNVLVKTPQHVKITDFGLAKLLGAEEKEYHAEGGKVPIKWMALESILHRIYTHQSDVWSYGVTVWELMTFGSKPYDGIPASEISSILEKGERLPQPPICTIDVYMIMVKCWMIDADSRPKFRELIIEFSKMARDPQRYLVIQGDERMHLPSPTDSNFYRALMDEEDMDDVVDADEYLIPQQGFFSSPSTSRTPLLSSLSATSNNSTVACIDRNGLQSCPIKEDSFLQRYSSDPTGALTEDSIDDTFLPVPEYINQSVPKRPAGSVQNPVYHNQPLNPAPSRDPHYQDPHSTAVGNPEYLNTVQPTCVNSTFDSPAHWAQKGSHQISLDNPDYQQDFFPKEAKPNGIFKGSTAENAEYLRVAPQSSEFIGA
Description: Inhibition of EGFR autophosphorylation at Tyr1068 site in human NCI-H1975 cells at 1 uM by western blotting analysis

Row | SMILES | pIC50 [1] | pIC50 [2] | pIC50 [3] | inhibition [4]
1 | Fc1cccc(Nc2ncnc3ccccc23)c1 | 5.12 | 4.88 | 4.82 | 
2 | Cc1nc(Nc2ccc(F)c(Cl)c2)c2cc(NC(=O)CCN(C)C)ccc2n1 | 6.96 | 5.73 | 5.98 | Active
3 | O=C(CCN1CCCCC1)Nc1ccc2ncnc(Nc3ccc(F)c(Cl)c3)c2c1 | 5.73 | 5.07 | 4.90 | 
4 | Cc1nc(Nc2ccc(F)c(Cl)c2)c2cc(NC(=O)CCN3CCCCC3)ccc2n1 | 6.06 | 5.49 | 5.55 | 
5 | COc1cccc(Nc2ncnc3ccccc23)c1 | 4.50 | 4.62 | 4.81 | 
6 | c1ccc(Nc2ncnc3ccccc23)cc1 | 4.45 | 4.18 | 4.45 | 
7 | Brc1cccc(Nc2ncnc3ccccc23)c1 | 4.98 | 4.10 | 4.61 | 
8 | CNCCC(=O)Nc1ccc2nc(C)nc(Nc3ccc(F)c(Cl)c3)c2c1 | 6.32 | 5.95 | 5.70 | 
9 | CNCCC(=O)Nc1ccc2ncnc(Nc3ccc(F)c(Cl)c3)c2c1 | 6.17 | 4.83 | 4.68 | 
10 | Cc1nc(Nc2ccc(F)c(Cl)c2)c2cc(NC(=O)CCN3CCOCC3)ccc2n1 | 5.94 | 5.70 | 5.49 | 
11 | Fc1ccc(Nc2ncnc3ccccc23)cc1Cl | 5.35 | < 4.00 | 4.30 | 
12 | Fc1ccccc1Nc1ncnc2ccccc12 | 4.97 | 4.16 | 4.03 | 
13 | Clc1cccc(Nc2ncnc3ccccc23)c1 | 4.98 | 4.63 | 4.66 | 
14 | Fc1ccc(Nc2ncnc3ccccc23)cc1 | 4.63 | 4.54 | 4.66 | 
15 | O=C(CCN1CCOCC1)Nc1ccc2ncnc(Nc3ccc(F)c(Cl)c3)c2c1 | 5.52 | 4.79 | 4.71 | 
16 | CN(C)CCC(=O)Nc1ccc2ncnc(Nc3ccc(F)c(Cl)c3)c2c1 | 6.44 | 5.03 | 5.02 | Active
